Assay results reported in patent US20250057191A1, “METHODS OF IMPROVING THE NUTRITIONAL STATUS OF IMMUNE STRESSED ANIMALS” (ELANCO US INC., priority 2021, published 2025).
Marks after values point to notes of the source that are not given here.

Experiments:
[1] = tested on: serum vitamin A; assay: Example 4: serum vitamin A in nursery pigs fed full or partial compositions of Combo, weaning to end of nursery; format: in vivo
Protocol: Serum samples were collected from two randomly selected pigs per pen with a total of 4 pigs per treatment at weaning (prior to access of the experimental diets) and at the end of the nursery phase when pigs reached approximately 45 lb of BW. Serum samples were analyzed for vitamin A concentration.

[2] = tested on: nursery pigs; assay: Example 4: growth performance and livability of nursery pigs from 8 to 45 lb of BW, full vs. partial components, 65 d
Source text: To evaluate the effects of dietary supplementation of the full vs. partial components of a beta-glucan/yeast cell wall/direct fed microbials/L-carnitine combination (Combo), a study was designed to feed the dietary treatments as shown Table 14 to nursery pigs from approximately 8 to 45 lb of BW post-weaning. Specifically, a total of 216 mixed-gender pigs were randomly placed in pens with 27 pigs per pen at weaning. Pens were blocked by weaning weight and pens within block were randomly assigned to one of 4 dietary treatments resulting in two pens per treatment. This study was conducted for 65 days in a 4-phase feeding program immediately after weaning.
Concentration of DFM was no less than 7.5×10^8 cfu/g of the product. Dietary concentrations of beta-glucan, yeast cell wall, DFM and carnitine were the same for each of the treatments if included in the diets.

[3] = end of nursery (approx. 45 lb BW)
[4] = 8 to 45 lb BW, Combo and Yeast/DFM 1.0 lb/ton, L-Carnitine 50 ppm
[5] = Early nursery, Phase 1 to 2, 22 d post-weaning
[6] = Entire nursery, Phase 1 to 4, 65 d post-weaning
[7] = Late nursery, Phase 3 to 4, 43 d post-weaning

## C[N+](C)(C)C[C@H](O)CC(=O)[O-] [carnitine, L-Carnitine]
[1]; Combo and Yeast/DFM 1.0 lb/ton, L-Carnitine 50 ppm, FIG. 6
  percentage increase of serum vitamin A concentration from weaning to the end of nursery: 114%
[1]; [3]
  serum vitamin A concentration, Max.: 0.198 ppm
  serum vitamin A concentration, Mean: 0.168 ppm
  serum vitamin A concentration, Min.: 0.143 ppm
[1]; ~45 lb BW, Combo and Yeast/DFM 1.0 lb/ton, L-Carnitine 50 ppm, 4 pigs per treatment
  serum vitamin A concentration at the end of nursery: 0.503 ppm
[2]; [4]
  greater nursery closeout ADG compared to Control: 29%
  greater nursery closeout G/F compared to Control: 29%
[2]; Early nursery, 22 d post-weaning
  BW end of Phase 2: 13.3 ^b lb
[2]; Early nursery, Phase 1 to 2, 22 d
  ADFI: 0.68 lb/day
[2]; [5]
  ADG: 0.16 lb/day
  G:F: 0.241 ^b
  Mortality: 31.48%
[2]; Entire nursery, Phase 1 to 4, 65 d
  ADFI: 1.01 ^a lb/day
[2]; [6]
  ADG: 0.31 ª lb/day
  ADG, change compared to Control: (+29%)
  G/F: 0.282 ^b
  G/F, change compared to Control: (+29%)
  Mortality: 46.30%
[2]; Late nursery, Phase 3 to 4
  Closeout BW end of Phase 4: 43.2 lb
[2]; Late nursery, Phase 3 to 4, 43 d
  ADFI: 1.32 ª lb/day
[2]; [7]
  ADG: 0.78 ^c lb/day
  F/G: 1.69
  Mortality: 14.81%
